Data as given in patent publication US11753635B2, “Methods and systems and related compositions for mixtures separation with a solid matrix” (CALIFORNIA INSTITUTE OF TECHNOLOGY, priority 2017, dated 2023).

What was measured:
[1] = cited from earlier work
[2] = system: LAMP reaction on lambda phage DNA; test: LAMP with contaminants (Example 4); type: biochemical; conditions: 10% additive (1 uL in 10 uL reaction)
Procedure: LAMP reactions were carried out using standard conditions provided by NEB with slight modifications. LAMP solutions were provided by NEB unless otherwise noted. The final solution contained 1× Isothermal Amplification Buffer I, 1.4 mM dNTPs, 7 mM MgSO4 (5 mM+2 mM in buffer), WarmStart Bst 2.0 (320 U/mL), 1 mg/mL BSA (Ambion) Lambda phage LAMP primers (standard desalted, Integrated DNA Technologies) at concentrations 0.2 uM F3/B3, 1.6 uM FIP/BIP, 0.4 uM LoopF/B as previously developed by Goto in 2009 were used. Reactions were made to a total of 10 uL comprised of 5 uL concentrated reaction mix and 5 uL of purified nucleic acids from the various extraction conditions (NF—H2O for negative control). For positive controls, 5 uL purified lambda phage DNA ([…]) was added to each reaction and for 5 uL template from nucleic acid extractions or each sample was tested in triplicate (n=3) and solutions were made to either 9 uL or 10 uL. The LAMP reaction was carried out by heating to 68° C. and all of the wells were tracked in real-time (image every 35 s) on the BioRad CFX-96 system. Samples were deemed negative if they […] over 30 min. Cycle times were determined automatically using the BioRad analysis software and converted to time-to-positive in minutes. […]

Row | Compound | Water solubility at 25° C. [1] | also measured
1 | CCCCCO [1 pentanol] | 2.2 g/100 mL | 
2 | CCCCCCCCCCCCCO [1 tridecanol] |  | Water solubility at 25° C. (in words) ([1]; explained as a solubility of 1 g per 10 L of solvent): practically insoluble (a
3 | CCCCCCCCO [1-octanol] | 0.03 g/100 mL | Delay in LAMP (time-to-positive) ([2]; versus 10 uL positive control): 1.4 min
4 | CCCCC(O)CCCC [5-nonanol] | 0.046 g/100 mL | 
5 | CCCCCCCCCCCCCCCCCCCCO [Arachidyl Alcohol (20 ol), Arachidyl Alcohol] | 0.151 ug/100 mL | 
6 | CCO [ethanol, reference compound] |  | Inhibition of the LAMP reaction ([2]; no amplification for at least 30 min): completely inhibits the LAMP reaction
